According to patent US20060252807A1, “Novel ortho-terphenyl inhibitors of p38 kinase and methods of treating inflammatory disorders” (Kalypsys, Inc., priority 2005, published 2006):
Values belong to the compound of their own block, whether it stands above or below them.

Target: T1, active p38 alpha enzyme (Upstate Biotechnology) (Homo sapiens, UniProt Q16539)
T1 construct: purchased Upstate Biotechnology
Experiment: p38α biochemical assay (ATP turnover, luminescent detection, Cambrex PKlight)
Details: p38α biochemical assay, Table 1 Biological Activity
Method: The p38α biochemical assay employed is based on measurement of total ATP turnover following enzyme incubation with substrate in the presence of ATP with the use of a luminescent detection reagent (Cambrex PKlight). The assays were performed in 1536-well white opaque plates.
The final volume was 7.5005 μL as prepared prepared from the addition of 5 ul of kinase reaction (p38 alpah+MapkapK2+ATP) with 0.0005 μL compound dissolved in DMSO, and 2.5 ul of the detection reagent. Assay buffer contains the following reagents to give final concentration in the assay: 200 mM Tris, 100 mM MgCl2, 1.5 mM EGTA, 4 mM CaCl2, 20 mM MOPS, 1 mM EDTA, 1% glycerol, 0.1% B-Mecaptoethanol, and 1 mg/ml BSA. Test compounds are pinned using proprietary pintool technology (Kalypsys, Inc) and delivered as […] amounts into the 5 ul mixture of active p38 alpha enzyme (Upstate Biotechnology) and MapkapK2 (Upstate Biotechnology) whole protein as a substrate for phosphorylation in the presence of 1.4 uM final concentration ATP. Reactions are incubated at 30C for 2 hours and detection reagent is added in 2.5 ul/well amounts. Assay is read using a Perkin Elmer Viewlux.

T1 sequence (Q16539 whole entry): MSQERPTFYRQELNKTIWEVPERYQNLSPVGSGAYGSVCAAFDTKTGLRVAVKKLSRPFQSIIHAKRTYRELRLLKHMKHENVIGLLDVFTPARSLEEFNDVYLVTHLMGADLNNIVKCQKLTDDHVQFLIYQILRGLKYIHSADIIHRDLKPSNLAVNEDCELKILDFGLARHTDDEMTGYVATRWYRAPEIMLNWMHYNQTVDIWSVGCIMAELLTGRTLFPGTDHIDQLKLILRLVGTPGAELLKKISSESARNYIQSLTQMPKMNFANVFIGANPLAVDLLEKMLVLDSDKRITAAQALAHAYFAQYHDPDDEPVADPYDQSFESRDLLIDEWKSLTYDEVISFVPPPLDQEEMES

Structure (SMILES): CC(C)NC(=O)c1csc(-c2c(-c3ccc(F)cc3)n[nH]c2C2CCNCC2)n1 [Example 61, 2-|3-(4-Fluoro-phenyl)-5-piperidin-4-yl-1H-pyrazol-4-yl|-thiazole-4-carboxylic acid isopropylamide]
IC50: ≤ 1000 nM

Structure (SMILES): CCNC(=O)c1csc(-c2c(-c3ccc(F)cc3)n[nH]c2C2CCNCC2)n1 [Example 63, 2-|3-(4-Fluoro-phenyl)-5-piperidin-4-yl-1H-pyrazol-4-yl|-thiazole-4-carboxylic acid ethylamide]
IC50: ≤ 1000 nM

Structure (SMILES): O=C(NCc1cccnc1)c1csc(-c2c(-c3ccc(F)cc3)n[nH]c2C2CCNCC2)n1 [Example 67, 2-|3-(4-Fluoro-phenyl)-5-piperidin-4-yl-1H-pyrazol-4-yl|-thiazole-4-carboxylic acid (pyridin-3-ylmethyl)-amide]
IC50: ≤ 1000 nM

Structure (SMILES): O=C(NCC1CC1)c1csc(-c2c(-c3ccc(F)cc3)n[nH]c2C2CCNCC2)n1 [Example 69, 2-|3-(4-Fluoro-phenyl)-5-piperidin-4-yl-1H-pyrazol-4-yl|-thiazole-4-carboxylic acid cyclopropylmethyl-amide]
IC50: ≤ 1000 nM

Structure (SMILES): O=C(O)c1csc(-c2c(-c3ccc(F)cc3)n[nH]c2C2CCNCC2)n1 [Example 70, 2-(3-(4-fluorophenyl)-5-(piperidin-4-yl)-1H-pyrazol-4-yl)thiazole-4-carboxylic acid]
IC50: > 1000 nM

Structure (SMILES): CCNC(=O)c1csc(-c2c(-c3ccc(F)cc3)n[nH]c2C)n1 [Example 72, 2-|3-(4-Fluoro-phenyl)-5-methyl-1H-pyrazol-4-yl|-thiazole-4-carboxylic acid ethylamide]
IC50: ≤ 1000 nM

Structure (SMILES): Cc1[nH]nc(-c2ccc(F)cc2)c1-c1nc(C(=O)NCc2ccccn2)cs1 [Example 75, 2-|3-(4-Fluoro-phenyl)-5-methyl-1H-pyrazol-4-yl|-thiazole-4-carboxylic acid (pyridin-2-ylmethyl)-amide]
IC50: ≤ 1000 nM

Structure (SMILES): Cc1[nH]nc(-c2ccc(F)cc2)c1-c1nc(C(=O)NCc2cccnc2)cs1 [Example 76, 2-|3-(4-Fluoro-phenyl)-5-methyl-1H-pyrazol-4-yl|-thiazole-4-carboxylic acid (pyridin-3-ylmethyl)-amide]
IC50: ≤ 1000 nM

Structure (SMILES): CC(C)NC(=O)c1csc(-c2[nH]c(CN3CCOCC3)nc2-c2ccc(F)cc2)n1 [Example 80, 2-|5-(4-Fluoro-phenyl)-2-morpholin-4-ylmethyl-3H-imidazol-4-yl|-thiazole-4-carboxylic acid isopropylamide]
IC50: ≤ 1000 nM

Structure (SMILES): CC(C)NC(=O)c1csc(-c2[nH]c(CN(C)C)nc2-c2ccc(F)cc2)n1 [Example 81, 2-|2-Dimethylaminomethyl-5-(4-fluoro-phenyl)-3H-imidazol-4-yl|-thiazole-4-carboxylic acid isopropylamide]
IC50: ≤ 1000 nM

Structure (SMILES): C#CCNC(=O)c1csc(-c2[nH]c(CN3CCNCC3)nc2-c2ccc(F)cc2)n1 [Example 82, 2-|5-(4-Fluoro-phenyl)-2-piperazin-1-ylmethyl-3H-imidazol-4-yl|-thiazole-4-carboxylic acid prop-2-ynylamide]
IC50: ≤ 1000 nM

Structure (SMILES): CC(C)NC(=O)c1csc(-c2[nH]c(CN3CCNCC3)nc2-c2ccc(F)cc2)n1 [Example 83, 2-|5-(4-Fluoro-phenyl)-2-piperazin-1-ylmethyl-3H-imidazol-4-yl|-thiazole-4-carboxylic acid isopropylamide]
IC50: ≤ 1000 nM

Structure (SMILES): CC(C)NC(=O)c1csc(-c2[nH]c(CO)nc2-c2ccc(F)cc2)n1 [Example 84, 2-|5-(4-Fluoro-phenyl)-2-hydroxymethyl-3H-imidazol-4-yl|-thiazole-4-carboxylic acid isopropylamide]
IC50: ≤ 1000 nM

Structure (SMILES): CC(C)NC(=O)c1csc(-c2c(-c3ccc(F)cc3)ncn2C)n1 [Example 86, 2-|5-(4-Fluoro-phenyl)-3-methyl-3H-imidazol-4-yl|-thiazole-4-carboxylic acid isopropylamide]
IC50: ≤ 1000 nM

Structure (SMILES): C#CCNC(=O)c1csc(-c2c(-c3ccc(F)cc3)ncn2C)n1 [Example 87, 2-|5-(4-Fluoro-phenyl)-3-methyl-3H-imidazol-4-yl|-thiazole-4-carboxylic acid prop-2-ynylamide]
IC50: ≤ 1000 nM

Structure (SMILES): CC(C)NC(=O)c1csc(-c2c(-c3ccc(F)cc3)ncn2C2CCN(Cc3ccccc3)CC2)n1 [Example 88, 2-|3-(1-Benzyl-piperidin-4-yl)-5-(4-fluoro-phenyl)-3H-imidazol-4-yl|-thiazole-4-carboxylic acid isopropylamide]
IC50: > 1000 nM

Structure (SMILES): CC(C)NC(=O)c1csc(-c2c(-c3ccc(F)cc3)ncn2C2CCN(C(=O)OC(C)(C)C)CC2)n1 [Example 90, 4-|4-(4-Fluoro-phenyl)-5-(4-isopropylcarbamoyl-thiazol-2-yl)-imidazol-1-yl|-piperidine-1-carboxylic acid tert-butyl ester]
IC50: > 1000 nM

Structure (SMILES): C#CCNC(=O)c1csc(-c2c(-c3ccc(F)cc3)ncn2C2CCNCC2)n1 [Example 92, 2-|5-(4-Fluoro-phenyl)-3-piperidin-4-yl-3H-imidazol-4-yl|-thiazole-4-carboxylic acid prop-2-ynylamide]
IC50: ≤ 1000 nM

Structure (SMILES): C#CCNC(=O)c1csc(-c2c(-c3ccc(F)cc3)ncn2C2CCN(C(=O)CO)CC2)n1 [Example 94, 2-{5-(4-Fluoro-phenyl)-3-|1-(2-hydroxy-acetyl)-piperidin-4-yl|-3H-imidazol-4-yl}-thiazole-4-carboxylic acid prop-2-ynylamide]
IC50: ≤ 1000 nM

Structure (SMILES): CC(C)NC(=O)c1csc(-c2[nH]c(N)nc2-c2ccc(F)cc2)n1 [Example 96, 2-|2-Amino-5-(4-fluoro-phenyl)-3H-imidazol-4-yl|-thiazole-4-carboxylic acid isopropylamide]
IC50: ≤ 1000 nM

Structure (SMILES): CC(C)NC(=O)c1csc(-c2c(-c3ccc(F)cc3)nc3ncccn23)n1 [Example 97, 2-|2-(4-Fluoro-phenyl)-imidazo|1,2-a|pyrimidin-3-yl|-thiazole-4-carboxylic acid isopropylamide]
IC50: > 1000 nM

Structure (SMILES): CC(C)NC(=O)c1csc(-c2oc(CNC(=O)CC#N)nc2-c2ccc(F)cc2)n1 [Example 100]
IC50: ≤ 1000 nM

Structure (SMILES): CCC(=O)C(=O)NCc1nc(-c2ccc(F)cc2)c(-c2nc(C(=O)NC(C)C)cs2)o1 [Example 102]
IC50: ≤ 1000 nM

Structure (SMILES): CC(C)NC(=O)c1csc(-c2oc(CNC(=O)c3cnc[nH]3)nc2-c2ccc(F)cc2)n1 [Example 105]
IC50: ≤ 1000 nM

Structure (SMILES): CC(C)NC(=O)c1csc(-c2oc(CNC(=O)c3ncc[nH]3)nc2-c2ccc(F)cc2)n1 [Example 106]
IC50: ≤ 1000 nM

Structure (SMILES): CC(C)NC(=O)c1csc(-c2oc(CNC(=O)C(F)(F)F)nc2-c2ccc(F)cc2)n1 [Example 108]
IC50: ≤ 1000 nM

Structure (SMILES): CC(=O)NCC(=O)NCc1nc(-c2ccc(F)cc2)c(-c2nc(C(=O)NC(C)C)cs2)o1 [Example 110]
IC50: ≤ 1000 nM

Structure (SMILES): CC(C)NC(=O)c1csc(-c2oc(CNC(=O)c3ccccc3)nc2-c2ccc(F)cc2)n1 [Example 111]
IC50: > 1000 nM

Structure (SMILES): CC(C)NC(=O)c1csc(-c2oc(CNC(=O)c3cccnc3)nc2-c2ccc(F)cc2)n1 [Example 112]
IC50: ≤ 1000 nM

The next lines start with the values.

IC50: ≤ 1000 nM
Structure (SMILES): C#CCNC(=O)c1csc(-c2c(-c3ccc(F)cc3)n[nH]c2C2CCNCC2)n1 [Example 65, 2-|3-(4-Fluoro-phenyl)-5-piperidin-4-yl-1H-pyrazol-4-yl|-thiazole-4-carboxylic acid prop-2-ynylamide]

IC50: ≤ 1000 nM
Structure (SMILES): Cc1[nH]nc(-c2ccc(F)cc2)c1-c1nc(C(=O)NCc2ccc3c(c2)OCO3)cs1 [Example 74, 2-|3-(4-Fluoro-phenyl)-5-methyl-1H-pyrazol-4-yl|-thiazole-4-carboxylic acid (benzo|1,3|dioxol-5-yl methyl)-amide]

IC50: ≤ 1000 nM
Structure (SMILES): Cc1[nH]nc(-c2ccc(F)cc2)c1-c1nc(C(=O)NCc2ccncc2)cs1 [Example 77, 2-|3-(4-Fluoro-phenyl)-5-methyl-1H-pyrazol-4-yl|-thiazole-4-carboxylic acid (pyridin-4-ylmethyl)-amide]

IC50: ≤ 1000 nM
Structure (SMILES): CC(=O)NCc1nc(-c2ccc(F)cc2)c(-c2nc(C(=O)NC(C)C)cs2)[nH]1 [Example 85, 2-|2-(Acetylamino-methyl)-5-(4-fluoro-phenyl)-3H-imidazol-4-yl|-thiazole-4-carboxylic acid isopropylamide]

IC50: > 1000 nM
Structure (SMILES): C#CCNC(=O)c1csc(-c2c(-c3ccc(F)cc3)ncn2C2CCN(Cc3ccccc3)CC2)n1 [Example 89, 2-|3-(1-Benzyl-piperidin-4-yl)-5-(4-fluoro-phenyl)-3H-imidazol-4-yl|-thiazole-4-carboxylic acid prop-2-ynylamide]

IC50: > 1000 nM
Structure (SMILES): O=C(O)c1csc(-c2c(-c3ccc(F)cc3)ncn2C2CCNCC2)n1 [Example 95, 2-|5-(4-Fluoro-phenyl)-3-piperidin-4-yl-3H-imidazol-4-yl|-thiazole-4-carboxylic acid]

IC50: > 1000 nM
Structure (SMILES): CC(C)NC(=O)c1csc(-c2oc(CN)nc2-c2ccc(F)cc2)n1 [Example 98]

IC50: > 1000 nM
Structure (SMILES): CC(C)NC(=O)c1csc(-c2oc(CNC(=O)C=O)nc2-c2ccc(F)cc2)n1 [Example 99]

IC50: ≤ 1000 nM
Structure (SMILES): CC(C)NC(=O)c1csc(-c2oc(CNC(=O)C(C)O)nc2-c2ccc(F)cc2)n1 (stereo not drawn) [Example 101]

IC50: ≤ 1000 nM
Structure (SMILES): CC(C)NC(=O)c1csc(-c2oc(CNC(=O)C(C)(C)C)nc2-c2ccc(F)cc2)n1 [Example 103]

IC50: ≤ 1000 nM
Structure (SMILES): CC(C)CC(=O)NCc1nc(-c2ccc(F)cc2)c(-c2nc(C(=O)NC(C)C)cs2)o1 [Example 104]

IC50: > 1000 nM
Structure (SMILES): CC(C)NC(=O)c1csc(-c2oc(CNC(=O)C3=CCCC3)nc2-c2ccc(F)cc2)n1 [Example 107]

IC50: ≤ 1000 nM
Structure (SMILES): CC(C)NC(=O)c1csc(-c2oc(CNC(=O)C3CCCO3)nc2-c2ccc(F)cc2)n1 (stereo not drawn) [Example 109]
